Measured values taken from paper PMC6627331, “Identification of Small Molecule Inhibitors of Staphylococcus aureus RnpA” (Antibiotics, 2019).
≈ marks a conversion by molar mass, not a printed value. Where two headings read alike, the source gives them in different places.

How the values were obtained:
[1] = molecular target: T1, S. aureus RNase P (RnpA + rnpB) (Staphylococcus aureus, UniProt P0A0H5); test: RnpA-dependent RNase P in vitro ptRNA^Tyr processing assay; assay type: biochemical
T1 construct: hexahistidine (His6) (N); made in house; host or cells: E. coli BL21 (DE3), plasmid pEXP5-nt
T1 sequence (P0A0H5 1-117): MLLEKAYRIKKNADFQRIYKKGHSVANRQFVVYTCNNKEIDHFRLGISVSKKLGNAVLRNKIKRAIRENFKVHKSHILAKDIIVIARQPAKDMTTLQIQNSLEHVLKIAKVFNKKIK
Description: S. aureus RNase P activity assays were performed according to conditions described previously. Briefly, ptRNA^Tyr and rnpB RNA species were first denatured by heating to 95 °C for 5 min then slow cooled to room temperature. RNase P was reconstituted by mixing an equal molar ratio of rnpB and RnpA for 15 min at 37 °C. Precursor tRNA processing inhibition reactions were performed by mixing 1.25 pmol of reconstituted RNase P (RnpA + rnpB) with an equal volume of 2× low salt buffer (50 mM Tris-HCl pH 8.0, 5 mM MgCl2) in the presence of DMSO (negative control) or the indicated compound (≤500 µM) and incubated for 5 min at 37 °C. 5 pmol ptRNA^Tyr was added and the mixture was incubated at 37 °C 15 min. Reactions were stopped by adding 2× RNA loading dye and heating at 65 °C for 10 min. Each sample was electrophoresed in a 7 M urea/8% polyacrylamide gel then stained with ethidium bromide. The Biorad EZ Gel Doc imaging system was used to visualize the RNA and relative abundance of the mature tRNA^Tyr band (% processing) in the negative control or in samples containing the indicated compounds and analyzed using Biorad Image Lab densitometry software. The inhibitory activity of the indicated compounds were calculated as a % inhibition using the following equation: […].
To assess IC50, % RNase P processing inhibition was plotted against compound concentration and a linear best fit equation was generated to calculate the IC50.

[2] = molecular target: T2, S. aureus RnpA (Staphylococcus aureus, UniProt P0A0H5); test: RnpA-mediated in vitro spa mRNA degradation assay; assay type: biochemical
T2 construct: hexahistidine (His6) (N); made in house; host or cells: E. coli BL21 (DE3), plasmid pEXP5-nt
T2 sequence (P0A0H5 1-117): T1 sequence (P0A0H5 1-117)
Description: RnpA-mediated RNA degradation assays were performed as previously described. Briefly, 1 pmol of spa mRNA was incubated with 5 pmol RnpA at 37 °C for 30 min in reaction buffer (50 mM Tris-HCl pH 8.0, 2 mM NaCl, 2 mM MgCl2) in the absence or presence of the indicated compound (≤500 µM). The inhibitory effects of the test compounds were calculated using Biorad ImageLab densitometry software to measure the signal intensity of the spa band in the negative control (spa alone), positive control (RnpA + spa + DMSO), and experimental samples (RnpA + spa + test compound) separated on a 1.2% formaldehyde-agarose gel. Background signal from the positive control sample sometimes resulted due to incomplete degradation of transcripts. Thus, the signal intensity of the positive control was taken into account when calculating the percent inhibition. The raw signals from the positive (+RnpA) and negative (-RnpA) controls were converted into percentage, by normalizing the positive control (+RnpA) signal to 0% RnpA inhibition and the negative control (-RnpA) to 100% RnpA inhibition. Similarly, the raw signals from the test compounds were reported as percent RnpA inhibition using the following equation: [(experimental−positive control)/(negative control−positive control)] × 100. […] To assess IC50, % RnpA degradation inhibition was plotted against compound concentration; a linear best fit equation was generated and utilized to calculate the IC50.

[3] = system: S. aureus UAMS-1; test: Minimum inhibitory concentration (MIC) testing; assay type: cell-based, Staphylococcus aureus
Description: Minimum inhibitory concentration (MIC) testing was performed using to Clinical & Laboratory Standards Institute (CLSI) guidelines. Accordingly, individual wells of a 96-well microtiter plate were inoculated with 10^4 colony forming units (CFU) of S. aureus UAMS-1 containing two-fold increasing concentrations (0 to 256 μg·mL^−1) of the indicated antibiotic or putative RnpA inhibitor compound, and incubated at 37 °C for 16 h in MHB. The MIC was defined as the lowest concentration of compound in which there was no visible bacterial growth in the well.

[4] = system: HepG2 cells; test: MTT human cell cytotoxicity testing; assay type: cell-based; settings: 4× MIC exposure for 24 h; for MTT = % HepG2 cell survival: SAR figures; for % HepG2 Cell Survival: MTT
Description: Human HepG2 hepatocytes were seeded in individual wells of a 96-well cell-culture treated microtiter plate at a concentration of 1 × 10^5 cells per well and incubated in Dulbecco’s Modified Eagle Medium (DMEM) supplemented with 10% fetal bovine serum at 37 °C with 5% carbon dioxide overnight. Cells were then treated with DMSO (negative control) or the indicated agent for 24 h. MTT Cell Proliferation Assay Kits were used to assess viability according to the manufacturer’s recommendations (American Type Culture Collection; Manassas, VA, USA).

[5] = SAR figures, in vitro ptRNA^Tyr processing, read-out: pIC50 = processing IC50 (converted)
[6] = SAR figures, read-out: dIC50 = degradation IC50
[7] = Staphylococcus aureus, UAMS1, 16 h, S. aureus UAMS-1, 16 h in MHB, read-out: MIC
[8] = Staphylococcus aureus, UAMS1, SAR figures, S. aureus UAMS-1, read-out: MIC
[9] = in vitro ptRNA^Tyr processing, read-out: Processing IC50
[10] = Table S1, mupirocin synergy screening initial hits, read-out: processing IC50
[11] = Table S1, mupirocin synergy screening initial hits

| Structure (SMILES) | IC50 [1, 5] [µM] | IC50 [2, 6] [µM] | MIC [3, 7] [mg/L] | MIC [3, 8] [mg/L] | MTT = % HepG2 cell survival [4] [%] | IC50 ([2]; read-out: Degradation IC50) [µM] | IC50 [1, 9] [µM] | also measured |
| --- | --- | --- | --- | --- | --- | --- | --- | --- |
| CC1CCN(C(=O)Nc2cccc(Cl)c2)CC1 [JC1b] | > 500 | > 500 | > 256 | > 256 |  |  |  |  |
| CC1CCCCN1C(=O)Nc1ccccc1 (stereo not shown) [JC2b] | > 500 | > 500 | > 256 | > 256 |  |  |  |  |
| Cc1ccc(NC(=O)N2CCCCC2C)cc1Cl (stereo not shown) [JC2c] | > 500 | > 500 | > 256 | > 256 |  |  |  |  |
| CCC1CCCCN1C(=O)Nc1ccccc1 (stereo not shown) [JC3c] | > 500 | > 500 | > 256 | > 256 |  |  |  |  |
| CCC1CCCCN1C(=O)Nc1ccc(Br)cc1 (stereo not shown) [JC3e] | > 500 | > 500 | > 256 | > 256 |  |  |  |  |
| CCC1CCCCN1C(=O)Nc1cccc(C)c1 (stereo not shown) [JC3f] | > 500 | > 500 | > 256 | > 256 |  |  |  |  |
| O=C(Nc1cc(Cl)cc(Cl)c1)N1CCCCC1 [JC4] | 300 |  | 256 (≈ 937 µM) | 256 (≈ 937 µM) | 71.4 | > 500 |  |  |
| O=C(Nc1cc(Cl)cc(Cl)c1)N1CCCCCC1 [JC5] |  |  | 128 (≈ 446 µM) | 128 (≈ 446 µM) | 65.3 | 200 | 225 |  |
| O=C(Nc1cccc(Cl)c1)N1CCCCCC1 [JC5b] | > 500 | > 500 | > 256 | > 256 |  |  |  |  |
| O=C(Nc1ccc(Cl)cc1)N1CCCCCC1 [JC5c] | > 500 | > 500 | > 256 | > 256 |  |  |  |  |
| CN1CCN(C(=O)Nc2cc(Cl)cc(Cl)c2)CC1 [JC6] | > 500 | > 500 | 8 (≈ 27.8 µM) | 8 (≈ 27.8 µM) | 61.6 | ≥ 450 | ≥ 450 |  |
| CCN1CCN(C(=O)Nc2cc(Cl)cc(Cl)c2)CC1 [JC7] | > 500 | > 500 | 8 (≈ 26.5 µM) | 8 (≈ 26.5 µM) | 75.7 | ≥ 450 | ≥ 450 |  |
| CCCN1CCN(C(=O)Nc2cc(Cl)cc(Cl)c2)CC1 [JC8] | > 500 | 450 | 1 (≈ 3.16 µM) | 1 (≈ 3.16 µM) | 109 | ≥ 450 | ≥ 450 | % HepG2 Cell Survival [4]: 109.2% |
| CC1CN(C(=O)Nc2cc(Cl)cc(Cl)c2)CC(C)O1 (stereo not shown) [JC9] |  |  |  | 32 (≈ 106 µM) | 82.5 | > 500 | > 500 |  |
| O=C(Nc1ccc(Cl)cc1)c1c(NC(=O)C(F)(F)F)sc2c1CCCCC2 [JR1] |  |  | 0.25 to 1 (≈ 0.6 to 2.4 µM) | 0.5 (≈ 1.2 µM) | 80.6 | 62.5 | 12 | % HepG2 Cell Survival ([4]; listed as ST016037): 81%; MIC ([3]; S. aureus UAMS-1, 16 h in MHB, listed as ST016037): 0.5 mg/L (≈ 1.2 µM); MIC ([3]; Staphylococcus aureus, UAMS1, 16 h, Table S1, mupirocin synergy screening initial hits, read-out: MIC): 0.5 mg/L |
| CC(=O)Nc1sc2c(c1C(=O)Nc1ccc(Cl)cc1)CCCCC2 [JR1b] |  |  | > 256 | > 256 | 84.9 | > 250 | 115 |  |
| Nc1sc2c(c1C(=O)Nc1ccc(Cl)cc1)CCCCC2 [JR1c] |  |  | 64 (≈ 199 µM) | 64 (≈ 199 µM) | 54.5 | 175 | 25 |  |
| O=C(Nc1ccccc1Cl)c1c(NC(=O)C(F)(F)F)sc2c1CCCCC2 [JR2] | 2 | 100 | 0.25 to 1 (≈ 0.6 to 2.4 µM) | 0.5 (≈ 1.2 µM) | 85.3 |  |  |  |
| O=C(Nc1ccccc1Cl)c1c(NC(=O)C(F)(F)F)sc2c1CCCC2 [JR2b] |  | 62 | > 256 | > 256 | 59.5 |  | 100 |  |
| O=C(Nc1cccc(Cl)c1)c1c(NC(=O)C(F)(F)F)sc2c1CCCCC2 [JR3] | 7 | 25 | 0.25 to 1 (≈ 0.6 to 2.4 µM) | 0.25 (≈ 0.6 µM) | 90.4 |  |  |  |
| O=C(Nc1cccc(Cl)c1)c1c(NC(=O)C(F)(F)F)sc2c1CCCC2 [JR3b] | 6 | 35 |  | 0.5 (≈ 1.24 µM) | 103.7 |  |  |  |
| O=C(Nc1ccccc1)c1c(NC(=O)C(F)(F)F)sc2c1CCCCC2 [JR4] | 10 | 63 |  |  |  |  |  |  |
| Cc1ccc(NC(=O)c2c(NC(=O)C(F)(F)F)sc3c2CCCCC3)cc1 [JR5] | 80 | 115 | 0.25 to 1 (≈ 0.631 to 2.52 µM) | 0.25 (≈ 0.631 µM) | 82.8 |  |  |  |
| COc1ccc(NC(=O)c2c(NC(=O)C(F)(F)F)sc3c2CCCCC3)cc1 [JR6] | 22 |  | 0.25 to 1 (≈ 0.606 to 2.42 µM) | 1 (≈ 2.42 µM) | 53.3 | > 250 |  |  |
| O=S(=O)(Nc1cccc2cccnc12)c1ccccc1 [compound 5175130] |  |  |  |  |  |  |  | IC50 [1, 10]: > 500 µM; MIC [3, 11]: 14.22 mg/L |
| c1ccc(Nc2nc(-c3ccccn3)cs2)nc1 [compound 5625000] |  |  |  |  |  |  |  | IC50 [1, 10]: > 500 µM; MIC [3, 11]: 1.59 mg/L |
| Cc1cccc(/C=C/c2ccc3cccc(O)c3n2)c1O [compound 6634438] |  |  |  |  |  |  |  | IC50 [1, 10]: < 62.5 µM; MIC [3, 11]: 10.40 mg/L |
| C/C(=C\C(=O)OCCCCCCCCC(=O)O)C[C@@H]1OC[C@H](C[C@@H]2O[C@H]2[C@@H](C)[C@H](C)O)[C@@H](O)[C@H]1O [mupirocin, reference compound] |  |  | 0.125 (≈ 0.25 µM) |  |  |  |  |  |
